Assays:
[1] = molecular target: T1, Recombinant human protein tyrosine phosphatase 1B (Homo sapiens, UniProt P18031); test: Protein tyrosine phosphatase 1B inhibitory activity (malachite green, phosphorylated insulin receptor peptide substrate); assay type: biochemical; settings: recombinant human PTP1B, 60 min room temperature, absorbance 650 nm
T1 construct: purchased UBI
T1 sequence (P18031 1-435): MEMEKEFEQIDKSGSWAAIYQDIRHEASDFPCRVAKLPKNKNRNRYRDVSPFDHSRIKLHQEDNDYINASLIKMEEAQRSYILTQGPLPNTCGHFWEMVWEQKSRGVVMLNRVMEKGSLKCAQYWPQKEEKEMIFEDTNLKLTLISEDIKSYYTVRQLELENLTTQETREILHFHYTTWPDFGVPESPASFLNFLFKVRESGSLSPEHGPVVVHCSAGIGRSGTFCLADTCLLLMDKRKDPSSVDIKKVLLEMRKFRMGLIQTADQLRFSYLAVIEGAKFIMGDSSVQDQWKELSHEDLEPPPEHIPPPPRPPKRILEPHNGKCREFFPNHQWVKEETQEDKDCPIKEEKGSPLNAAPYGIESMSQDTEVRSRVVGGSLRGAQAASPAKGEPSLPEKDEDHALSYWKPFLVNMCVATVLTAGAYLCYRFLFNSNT
Experimental: Preparation of Assay Buffer:
A 50 mM Tris-HCl buffer (pH 7.5), 50 mM NaCl and 3 mM dithiothreitol (DTT) were prepared.
[…] 0.1, 0.3, 1, 3 and 10 μM of the test compound were prepared and diluted with the above-mentioned assay buffer to the final dimethyl sulfoxide (DMSO) concentration of not more than 1%. As the control, the assay buffer was used.
Preparation of Substrate:
Recombinant human protein tyrosine phosphatase 1B (manufactured by UBI) was diluted with the above-mentioned assay buffer (1.2 ng/25 μl).
The sample (10 μl) prepared as mentioned above and a substrate (25 μl) were successively added to a 96 well plate, and the enzyme (25 μl) prepared as mentioned above was added and mixed. The mixture was incubated at room temperature for 60 min and a malachite green (120 μl, Biomol), which is a color reagent, was added. The mixture was further incubated at room temperature for 20 min to allow for color development. An absorbance at 650 nm was measured on a plate reader based on which the protein tyrosine phosphatase 1B inhibitory activity of the test compound was evaluated.

CN(Cc1ccc(C2CCC(C)(C)CC2)cc1)c1ccc(-c2csc(CN(CC(=O)O)Cc3ccccc3)n2)cc1 [Example 3-35]
IC50 [1]: 0.073 µM

CCCC(CCC)c1ccc(OCc2ccc(-c3ccc(C(=O)N(CC(=O)O)Cc4nc5ccccc5n4C)s3)cc2)cc1 [Example 4-42]
IC50 [1]: 0.17 µM | melting point: 185 to 188 °C

CN(Cc1ccc([C@H]2CC[C@H](C)CC2)cc1)c1ccc(-c2csc(CN3Cc4ccccc4CC3C(=O)O)n2)cc1 (stereo partly shown) [Example 3-71]
IC50 [1]: 0.095 µM | melting point: 202 to 205 °C

CCN(Cc1ccc(C2CCCCC2)cc1)c1ccc(-c2ccc(CN(CCOc3ccccc3)CC(=O)O)s2)cc1 [Example 4-67]
IC50 [1]: 0.23 µM | melting point: 141 to 144 °C

CCCC(CCC)c1ccc(OCc2ccc(-c3csc(CN(CC(=O)O)C(=O)COc4ccc(C(C)C)cc4)c3)cc2)cc1 [Example 4-69]
IC50 [1]: 0.15 µM | melting point: 146 to 152 °C

CCN(Cc1ccc(C2CCCCC2)cc1)c1ccc(-c2ccc(CN(CC(=O)O)Cc3ccccn3)s2)cc1 [Example 4-66]
IC50 [1]: 0.45 µM | melting point: 128 to 131 °C

CCCC(CCC)c1ccc(OCc2ccc(-c3csc(Cn4nc(C(=O)O)cc4C(C)(C)C)n3)cc2)cc1 [Example 1-178]
IC50 [1]: 0.44 µM | melting point: 195 to 196.5 °C

CCCC(CCC)c1ccc(OCc2ccc(-c3ccc(CN(CC(=O)O)Cc4ccc(SC)cc4)s3)cc2)cc1 [Example 4-78]
IC50 [1]: 0.38 µM | melting point: 202.7 to 204.3 °C

CN(Cc1ccc([C@H]2CC[C@H](C)CC2)cc1)c1ccc(-c2csc(CN3CCC(C(=O)O)(c4ccccc4)CC3)n2)cc1 [Example 3-69]
IC50 [1]: 0.16 µM | melting point: 229 to 231 °C

CCCC(CCC)c1ccc(OCc2ccc(-c3ccc(CN(CC(=O)O)Cc4cc(-c5ccccc5)cs4)s3)cc2)cc1 [Example 4-98]
IC50 [1]: < 0.1 µM | melting point: 181.4 to 184.5 °C

CCCC(CCC)c1ccc(OCc2ccc(-c3csc(CN(CC(=O)O)Cc4nc5ccccc5n4C)c3)cc2)cc1 [Example 4-30]
IC50 [1]: 0.17 µM

C[C@H]1CC[C@H](c2ccc(COc3ccc(-c4ccc(CN5CCN(c6ccc(C(=O)O)cc6)CC5)s4)cc3)cc2)CC1 [Example 4-74]
IC50 [1]: 0.11 µM | melting point: 242.4 to 265.9 °C

CCCC(CCC)c1ccc(OCc2ccc(-c3ccc(CN(CC(=O)O)Cc4nc5ccccc5n4CC(=O)N(CC)CC)s3)cc2)cc1 [Example 4-101]
IC50 [1]: 0.1 µM | melting point: 194.8 to 197 °C

CN(Cc1ccc(C(=O)O)cc1)c1nc(-c2ccc(C(=O)Nc3ccc(C4CCCCC4)cc3)cc2)cs1 [Example 1-53]
IC50 [1]: 0.24 µM

CCCC(CCC)c1ccc(OCc2ccc(-c3csc(COc4ccc(C(=O)O)cc4)c3)cc2)cc1 [Example 4-58]
IC50 [1]: 0.19 µM | melting point: 194.2 to 195.5 °C

CCCC(CCC)c1ccc(OCc2ccc(-c3csc(CN(CC(=O)O)Cc4nc5ccccc5n4C)c3)cc2)cc1.O=S(=O)(O)O [Example 4-55]
IC50 [1]: 0.17 µM | melting point: 137.5 to 141.5 °C

CCCC(CCC)c1ccc(OCc2ccc(-c3ccc(C(=O)N(CC(=O)O)Cc4ccc(N(C)C)cc4)s3)cc2)cc1 [Example 4-45]
IC50 [1]: 0.27 µM | melting point: 137 to 139 °C

CCCC(CCC)c1ccc(OCc2ccc(-c3csc(CN(CC(=O)O)Cc4ccc(-c5cccs5)s4)c3)cc2)cc1 [Example 4-93]
IC50 [1]: < 0.1 µM | melting point: 203.8 to 206.2 °C

C=CCn1c(CN(CC(=O)O)Cc2ccc(-c3ccc(COc4ccc(C(CCC)CCC)cc4)cc3)s2)nc2ccccc21 [Example 4-106]
IC50 [1]: 0.16 µM | melting point: 141.2 to 144.1 °C

CCCC(CCC)c1ccc(COc2ccc(-c3csc(CN4Cc5ccccc5C[C@H]4C(=O)O)n3)cc2)cc1 [Example 3-26]
IC50 [1]: 0.11 µM | melting point: 90 to 93 °C

CCCC(CCC)c1ccc(OCc2ccc(-c3ccc(CN(CC(=O)O)Cc4ccc(OC)cc4)s3)cc2)cc1 [Example 4-77]
IC50 [1]: 0.4 µM | melting point: 195.7 to 196.8 °C

C[C@H]1CC[C@H](c2ccc(COc3ccc(-c4ccc(CN(CC5CCCCC5)S(=O)(=O)c5ccc(C(=O)O)cc5)s4)cc3)cc2)CC1 [Example 4-79]
IC50 [1]: < 0.1 µM | melting point: 234 to 241.8 °C

CCN(C[C@H]1CC[C@H](c2ccc(C(C)(C)C)cc2)CC1)c1ccc(-c2csc(CN3CCC(c4ccc(C(=O)O)cc4)CC3)c2)cc1 [Example 4-68]
IC50 [1]: < 0.1 µM | melting point: 225 to 229 °C (dec.)

CCCC(CCC)c1ccc(OCc2ccc(-c3ccc(C(=O)N4CCN(c5ccc(C(=O)O)cc5)CC4)s3)cc2)cc1 [Example 4-52]
IC50 [1]: 0.15 µM

CCCC(CCC)c1ccc(OCc2ccc(-c3ccc(CN(CC(=O)O)C(c4ccccc4)c4ccccc4)s3)cc2)cc1 [Example 4-81]
IC50 [1]: < 0.1 µM

CCCC(CCC)c1ccc(OCc2ccc(-c3csc(COc4cc(C(=O)O)ccc4N(C)S(C)(=O)=O)c3)cc2)cc1 [Example 4-59]
IC50 [1]: 0.18 µM

CCCC(CCC)c1ccc(OCc2ccc(-c3ccc(C(=O)N(CC(=O)O)Cc4ncc(C(C)(C)C)s4)s3)cc2)cc1 [Example 4-43]
IC50 [1]: 0.16 µM

CCCC(CCC)c1ccc(OCc2ccc(-c3ccc(CN(CC(=O)O)Cc4nc(C(C)(C)C)cs4)s3)cc2)cc1 [Example 4-35]
IC50 [1]: 0.087 µM

CCCC(CCC)c1ccc(OCc2ccc(-c3csc(CN(C)S(=O)(=O)c4ccc(C(=O)O)cc4)n3)cc2)cc1 [Example 1-50]
IC50 [1]: 0.14 µM

CCCC(CCC)c1ccc(OCc2ccc(-c3csc(CN(CC(=O)O)C(=O)N(C)c4ccccc4)c3)cc2)cc1 [Example 4-72]
IC50 [1]: 0.29 µM

CCCC(CCC)c1ccc(OCc2ccc(-c3csc(COc4cc(C(=O)O)ccc4NC(=O)CN(C)C)c3)cc2)cc1 [Example 4-56]
IC50 [1]: 0.2 µM

CCCC(CCC)c1ccc(OCc2ccc(-c3ccc(CN(CC(=O)O)Cc4nc5ccccc5n4C)s3)cc2)cc1 [Example 4-1]
IC50 [1]: 0.15 µM

CCCC(CCC)c1ccc(N(Cc2ccc3nc(-c4csc(CN(CC(=O)O)Cc5nc(C(C)(C)C)cs5)n4)oc3c2)C(C)C)cc1 [Example 1-138]
melting point: 98 to 100 °C

CC(C)CCSc1ccc(CN(C)c2ccc(-c3csc(CN(CC(=O)O)Cc4ccccc4)n3)cc2)cc1 [Example 3-42]
melting point: 122 °C

CN(Cc1ccc(C2CCCCC2)cc1)c1ccc(-c2csc(CNC(C(=O)O)c3ccccc3)n2)cc1 (stereo not shown) [Example 3-77]
melting point: 183 to 186 °C

CC(C)CN(Cc1nc(-c2ccc(N(C)Cc3ccc(C4CCCCC4)cc3)cc2)cs1)S(=O)(=O)CC(=O)O [Example 3-104]
melting point: 104 to 110 °C

CN(Cc1nc(-c2ccc(N(C)Cc3ccc(C4CCCCC4)cc3)cc2)cs1)C(=O)NCC(=O)O [Example 3-109]
melting point: 149 to 150 °C

O=C(O)CN(Cc1ccccc1)Cc1cc(-c2ccc(COc3cc(Cl)cc(Cl)c3)cc2)cs1 [Example 4-105]
melting point: 202.3 to 204.2 °C

CN(Cc1ccc(C2CCCCC2)cc1)c1ccc(-c2csc(CN(C)S(=O)(=O)c3cccc(C(=O)O)c3)n2)cc1 [Example 3-101]
melting point: 164 to 166 °C

CC(C)CCN(CC(=O)O)Cc1nc(-c2ccc(N(C)Cc3ccc(C4CCCCC4)cc3)cc2)cs1 [Example 3-91]
melting point: 153 to 154 °C

CC(C)CN(Cc1ccc(-c2csc(CN(CC(=O)O)C(=O)c3ccccn3)n2)cc1)c1ccc(C(C)(C)C)cc1 [Example 1-29]
melting point: 160 °C

— patent publication US20060122181A1, “Heteroaromatic pentacyclic compound and medicinal use thereof” (Japan Tobacco Inc., priority 2003, published 2006)
